Measurements taken from US8796203B2, “Use of tight junction antagonists to treat inflammatory bowel disease” (Alba Therapeutics Corporation, priority 2006, dated 2014).

Assays:
Type in all cases: in vivo
129/Svev/IL-10KO mouse = assay: Small intestinal permeability by lactulose mannitol test in IL-10 KO mouse; settings: high dose AT-1001 (1 mg/ml in drinking water, ad libidum), FIGS. 1-4
Protocol: (§1) The purpose of this study is to determine the ability of AT-1001, administered daily in drinking water to alter intestinal permeability (measured by absorption/excretion of lactulose and mannitol) and to inhibit the development of colitis in the 129/Svev/IL-10KO mouse.
AT-1001 neat chemical will be administered ad libidum every day starting at day 1 to Group 3 at 0.1 mg/ml and Group 4 at 1 mg/ml in sterile water via the drinking water supply. Dosing of AT-1001 will be continued when the animals are in the metabolic cages for 22 hours. Probiotic conditioned medium will be given every morning to Group 2. The solution is prepared by dissolving 0.01 g in 10 ml of MRS medium and incubating it at 37° C. for 24 h. After incubation, the tube will be centrifuged 10 minutes at 10,000 rpm. The supernatant will be filtered through a 0.22 micron filter and diluted 1:10 with MRS medium. Animals will receive 30 μl of this dilution every morning. The conditioned media must be prepared fresh every morning.
Each week, food and water will be removed 4 hours prior to gavage. […]
During each intestinal permeability trial, all subjects will be gavaged with suc/lac/man/sucralose solution and placed in metabolic cages immediately after to enable urine collection. […] All sugars will be quantified by ion exchange HPLC. […]

[1] = system: 129/Svev/IL-10KO mouse colon; assay: Colonic inflammation (histology, mucosal cytokine secretion, MPO) in IL-10 KO mouse; settings: at 17 weeks; AT-1001 in drinking water
Text: as §1
Immediately upon expiration, stomachs, small intestines, and colons will be collected and weighed. Each tissue will be scored for macroscopic lesions to assess intestinal damage by the Study Pathologist. ELISAs will be performed on each tissue to measure the levels of MPO, IL-8, TNFα, and IFNγ. A section of the tissues will be fixed in formalin for HE histology. The day after the final intestinal permeability measures on day 77, all surviving animals will be euthanized and intestinal tissues collected and processed.
(§2) FIG. 5-10 show the results of analysis of disease in the colon. Disease in the colon was evaluated at both 8 and 17 week time points. The former with Ussing chamber measurements and the latter with histology, mucosal cytokine secretion, MPO and sucralose permeability.

[2] = system: 129/Svev/IL-10KO mouse colon; assay: Colonic permeability and electrical resistance, Ussing chamber measurements, IL-10 KO mouse; settings: at 8 weeks of age, AT-1001 in drinking water, versus untreated animals
Protocol: as §1, §2

AT-1001
increase in small intestinal permeability associated with development of disease (129/Svev/IL-10KO mouse): abrogated
tissue markers of colonic inflammation (neutrophil infiltration/MPO, TNF and IFN secretion over 24 hours) [1]: reduced all tissue markers of colonic inflammation that were measured
colonic electrical resistance [2]: prevented the reduction in electrical resistance
colonic permeability to mannitol [2]: reduced colonic permeability to mannitol
